Measurements from patent US10793538B2, “Cycloalkenyl hydroxamic acid derivatives and their use as histone deacetylase inhibitors” (The Broad Institute, Inc., priority 2012, dated 2020).
pIC50: −log10 of the molar value.

Assays:
Assay in all cases: HDAC isoform inhibition, microfluidic lab-on-a-chip (Caliper) assay
[1] = biological target: T1, HDAC6 (Homo sapiens, UniProt Q9UBN7); format: biochemical; settings: HDAC isoform 6; 2 μM FAM-labeled acetylated peptide substrate, 60 min, room temperature
T1 construct: purchased BPS Bioscience
T1 sequence (Q9UBN7 1-1215): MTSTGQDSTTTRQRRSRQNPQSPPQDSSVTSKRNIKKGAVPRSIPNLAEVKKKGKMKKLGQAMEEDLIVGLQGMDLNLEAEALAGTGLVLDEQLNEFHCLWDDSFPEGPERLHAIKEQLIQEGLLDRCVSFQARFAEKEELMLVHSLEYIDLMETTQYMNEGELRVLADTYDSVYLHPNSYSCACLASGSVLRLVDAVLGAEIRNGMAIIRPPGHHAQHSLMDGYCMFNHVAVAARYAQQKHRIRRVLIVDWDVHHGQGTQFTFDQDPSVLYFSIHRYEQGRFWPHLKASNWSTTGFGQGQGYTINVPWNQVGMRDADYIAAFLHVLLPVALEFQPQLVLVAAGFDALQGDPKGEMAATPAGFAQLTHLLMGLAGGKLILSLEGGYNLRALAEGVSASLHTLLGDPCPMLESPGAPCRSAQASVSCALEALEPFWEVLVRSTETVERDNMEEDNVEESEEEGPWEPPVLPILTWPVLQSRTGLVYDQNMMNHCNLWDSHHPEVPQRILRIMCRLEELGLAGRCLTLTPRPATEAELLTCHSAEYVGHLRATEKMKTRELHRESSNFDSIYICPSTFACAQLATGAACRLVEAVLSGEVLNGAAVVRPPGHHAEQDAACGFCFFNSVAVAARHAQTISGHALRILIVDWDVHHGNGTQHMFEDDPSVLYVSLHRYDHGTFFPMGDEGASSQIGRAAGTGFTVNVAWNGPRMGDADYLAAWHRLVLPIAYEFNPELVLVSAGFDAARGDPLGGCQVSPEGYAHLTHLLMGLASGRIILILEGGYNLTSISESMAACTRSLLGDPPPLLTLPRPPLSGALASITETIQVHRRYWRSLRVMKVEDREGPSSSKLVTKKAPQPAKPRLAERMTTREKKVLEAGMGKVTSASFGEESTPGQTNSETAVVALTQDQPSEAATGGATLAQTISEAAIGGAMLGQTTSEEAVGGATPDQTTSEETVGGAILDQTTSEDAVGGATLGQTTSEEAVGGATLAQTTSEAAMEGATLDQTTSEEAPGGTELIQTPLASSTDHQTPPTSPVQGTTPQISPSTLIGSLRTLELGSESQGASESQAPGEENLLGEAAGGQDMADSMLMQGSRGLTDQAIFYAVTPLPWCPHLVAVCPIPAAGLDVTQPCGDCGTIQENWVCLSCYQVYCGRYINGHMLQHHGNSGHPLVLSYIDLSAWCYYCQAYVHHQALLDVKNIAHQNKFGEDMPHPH

[2] = biological target: T2, HDAC2 (Homo sapiens, UniProt Q92769); format: biochemical; settings: HDAC isoform 2; 2 μM FAM-labeled acetylated peptide substrate, 60 min, room temperature
T2 construct: purchased BPS Bioscience
T2 sequence (Q92769 whole entry, canonical isoform): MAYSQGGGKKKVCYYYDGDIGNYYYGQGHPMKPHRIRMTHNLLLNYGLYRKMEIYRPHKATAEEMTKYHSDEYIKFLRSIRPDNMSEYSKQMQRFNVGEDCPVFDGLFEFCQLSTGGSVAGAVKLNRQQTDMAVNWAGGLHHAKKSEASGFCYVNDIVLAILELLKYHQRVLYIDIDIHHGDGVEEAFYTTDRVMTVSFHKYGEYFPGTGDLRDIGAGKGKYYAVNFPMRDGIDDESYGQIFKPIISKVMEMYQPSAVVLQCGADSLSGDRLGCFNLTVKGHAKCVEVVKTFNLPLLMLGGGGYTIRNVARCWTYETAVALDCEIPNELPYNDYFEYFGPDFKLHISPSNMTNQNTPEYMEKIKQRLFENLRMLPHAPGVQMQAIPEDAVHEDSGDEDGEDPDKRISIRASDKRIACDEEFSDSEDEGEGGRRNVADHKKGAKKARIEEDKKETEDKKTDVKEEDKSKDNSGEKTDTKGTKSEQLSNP

[3] = biological target: T3, HDAC5 (Homo sapiens, UniProt Q9UQL6); format: biochemical; settings: HDAC isoform 5; 2 μM FAM-labeled acetylated peptide substrate, 60 min, room temperature
T3 construct: purchased BPS Bioscience
T3 sequence (Q9UQL6 whole entry, canonical isoform): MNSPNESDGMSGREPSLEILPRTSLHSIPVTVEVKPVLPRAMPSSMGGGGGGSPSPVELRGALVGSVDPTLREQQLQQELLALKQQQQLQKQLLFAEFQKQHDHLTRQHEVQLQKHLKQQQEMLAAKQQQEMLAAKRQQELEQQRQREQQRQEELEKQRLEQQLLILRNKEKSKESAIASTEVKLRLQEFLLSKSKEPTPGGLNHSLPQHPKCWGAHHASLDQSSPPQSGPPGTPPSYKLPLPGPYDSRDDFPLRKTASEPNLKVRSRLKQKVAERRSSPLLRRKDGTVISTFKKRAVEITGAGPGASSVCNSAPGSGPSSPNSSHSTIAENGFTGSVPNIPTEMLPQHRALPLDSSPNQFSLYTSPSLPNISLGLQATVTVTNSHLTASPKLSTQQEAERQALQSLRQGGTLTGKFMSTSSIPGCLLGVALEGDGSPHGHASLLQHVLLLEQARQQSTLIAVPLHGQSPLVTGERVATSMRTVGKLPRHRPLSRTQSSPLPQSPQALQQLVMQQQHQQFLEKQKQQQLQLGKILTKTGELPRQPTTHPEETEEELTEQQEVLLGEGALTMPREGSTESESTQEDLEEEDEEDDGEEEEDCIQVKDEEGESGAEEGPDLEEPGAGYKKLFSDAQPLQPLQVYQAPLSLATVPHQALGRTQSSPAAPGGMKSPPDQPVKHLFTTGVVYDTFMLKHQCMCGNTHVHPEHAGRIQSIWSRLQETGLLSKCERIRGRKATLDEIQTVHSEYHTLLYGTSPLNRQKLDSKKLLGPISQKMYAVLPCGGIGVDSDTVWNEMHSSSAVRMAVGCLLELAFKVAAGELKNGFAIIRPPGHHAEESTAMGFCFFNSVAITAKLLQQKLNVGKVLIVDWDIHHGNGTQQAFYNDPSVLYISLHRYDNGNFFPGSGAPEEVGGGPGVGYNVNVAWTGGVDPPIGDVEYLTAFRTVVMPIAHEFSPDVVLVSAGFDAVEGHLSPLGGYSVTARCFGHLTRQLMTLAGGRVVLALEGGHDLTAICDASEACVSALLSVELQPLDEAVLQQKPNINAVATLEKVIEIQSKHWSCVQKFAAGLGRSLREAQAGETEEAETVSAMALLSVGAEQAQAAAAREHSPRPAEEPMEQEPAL

[4] = biological target: HDAC4 (Homo sapiens, UniProt P56524)
HDAC4, sequence (P56524 whole entry, canonical isoform): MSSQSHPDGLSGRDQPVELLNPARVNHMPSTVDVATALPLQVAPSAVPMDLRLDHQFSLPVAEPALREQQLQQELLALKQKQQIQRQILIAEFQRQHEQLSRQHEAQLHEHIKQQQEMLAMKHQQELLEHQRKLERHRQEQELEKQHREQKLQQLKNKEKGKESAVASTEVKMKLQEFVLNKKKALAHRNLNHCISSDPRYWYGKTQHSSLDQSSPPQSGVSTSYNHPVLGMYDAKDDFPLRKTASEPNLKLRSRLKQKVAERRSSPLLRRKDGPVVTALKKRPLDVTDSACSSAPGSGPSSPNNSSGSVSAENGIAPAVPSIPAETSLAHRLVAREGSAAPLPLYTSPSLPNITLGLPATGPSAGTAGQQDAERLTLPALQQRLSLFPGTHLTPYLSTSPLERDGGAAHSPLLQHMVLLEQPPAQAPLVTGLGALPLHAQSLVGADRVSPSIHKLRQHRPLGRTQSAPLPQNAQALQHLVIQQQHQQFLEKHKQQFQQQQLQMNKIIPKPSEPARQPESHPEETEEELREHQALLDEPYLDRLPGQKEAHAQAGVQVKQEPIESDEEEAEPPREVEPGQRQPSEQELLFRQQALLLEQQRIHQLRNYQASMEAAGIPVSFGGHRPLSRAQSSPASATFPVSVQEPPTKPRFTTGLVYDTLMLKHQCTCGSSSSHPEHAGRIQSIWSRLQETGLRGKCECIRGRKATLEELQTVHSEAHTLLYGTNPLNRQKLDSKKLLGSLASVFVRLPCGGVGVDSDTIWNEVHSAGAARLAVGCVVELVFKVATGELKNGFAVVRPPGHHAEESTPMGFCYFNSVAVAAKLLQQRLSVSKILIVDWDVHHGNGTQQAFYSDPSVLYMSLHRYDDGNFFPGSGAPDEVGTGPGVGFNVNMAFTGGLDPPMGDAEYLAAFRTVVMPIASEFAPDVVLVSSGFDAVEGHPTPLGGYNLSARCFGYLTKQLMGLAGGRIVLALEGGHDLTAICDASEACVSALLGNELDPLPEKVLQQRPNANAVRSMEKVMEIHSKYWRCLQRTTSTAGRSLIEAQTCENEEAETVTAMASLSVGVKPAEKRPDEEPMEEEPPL
Method: The following microfluidic lab-on-a-chip assay as described herein was used to assay the compounds of the invention.
All HDACs were purchased from BPS Bioscience. All other reagents were purchased from Sigma. Caliper EZ reader II system was used to collect all the data.
In short, purified HDACs were incubated with 2 μM carboxyfluorescein (FAM)-labeled acetylated peptide substrate and test compound for 60 min at room temperature, in HDAC assay buffer that contained 50 mM HEPES (pH 7.4), 100 mM KCl, 0.01% BSA and 0.001% Tween-20. […] Substrate and product were separated electrophoretically and fluorescence intensity in the substrate and product peaks was determined and analyzed by Labchip EZ Reader. The reactions were performed in duplicate for each sample. IC50 values were automatically calculated by Origion8 using 4 Parameter Logistic Model. The percent inhibition was plotted against the compound concentration, and the IC50 value was determined from the logistic dose-response curve fitting by Origin 8.0 software.

[5] = biological target: T4, HDAC1 (Homo sapiens, UniProt Q13547); format: biochemical; settings: HDAC isoform 1; 2 μM FAM-labeled acetylated peptide substrate, 60 min, room temperature
T4 construct: purchased BPS Bioscience
T4 sequence (Q13547 whole entry, canonical isoform): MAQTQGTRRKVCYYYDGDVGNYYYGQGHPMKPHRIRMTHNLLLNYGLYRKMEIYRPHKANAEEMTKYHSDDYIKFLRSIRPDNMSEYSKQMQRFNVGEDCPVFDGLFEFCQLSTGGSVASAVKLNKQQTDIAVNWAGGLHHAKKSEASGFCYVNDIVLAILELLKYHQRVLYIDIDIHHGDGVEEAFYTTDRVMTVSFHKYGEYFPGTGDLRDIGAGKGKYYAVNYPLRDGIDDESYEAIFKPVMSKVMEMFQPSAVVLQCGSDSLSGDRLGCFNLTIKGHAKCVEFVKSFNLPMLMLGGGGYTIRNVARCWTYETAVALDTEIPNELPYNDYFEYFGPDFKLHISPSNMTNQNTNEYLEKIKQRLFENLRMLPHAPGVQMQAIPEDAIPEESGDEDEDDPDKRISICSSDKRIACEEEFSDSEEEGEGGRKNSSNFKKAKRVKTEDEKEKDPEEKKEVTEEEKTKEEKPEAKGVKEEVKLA

[6] = biological target: T5, HDAC8 (Homo sapiens, UniProt Q9BY41); format: biochemical; settings: HDAC isoform 8; 2 μM FAM-labeled acetylated peptide substrate, 60 min, room temperature
T5 construct: purchased BPS Bioscience
T5 sequence (Q9BY41 1-377): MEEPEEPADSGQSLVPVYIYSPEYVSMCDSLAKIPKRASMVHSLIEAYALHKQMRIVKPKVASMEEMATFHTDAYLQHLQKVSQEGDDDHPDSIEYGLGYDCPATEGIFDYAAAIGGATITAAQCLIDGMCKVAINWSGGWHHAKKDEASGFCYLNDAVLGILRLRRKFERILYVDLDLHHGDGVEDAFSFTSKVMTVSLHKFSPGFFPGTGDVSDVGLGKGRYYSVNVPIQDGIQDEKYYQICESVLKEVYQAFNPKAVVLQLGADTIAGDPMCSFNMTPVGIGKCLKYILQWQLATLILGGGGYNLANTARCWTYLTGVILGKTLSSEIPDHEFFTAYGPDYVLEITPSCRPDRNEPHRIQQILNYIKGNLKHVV

[7] = biological target: T6, HDAC3 (Homo sapiens, UniProt O15379); format: biochemical; settings: HDAC isoform 3; 2 μM FAM-labeled acetylated peptide substrate, 60 min, room temperature
T6 construct: purchased BPS Bioscience
T6 sequence (O15379 whole entry, canonical isoform): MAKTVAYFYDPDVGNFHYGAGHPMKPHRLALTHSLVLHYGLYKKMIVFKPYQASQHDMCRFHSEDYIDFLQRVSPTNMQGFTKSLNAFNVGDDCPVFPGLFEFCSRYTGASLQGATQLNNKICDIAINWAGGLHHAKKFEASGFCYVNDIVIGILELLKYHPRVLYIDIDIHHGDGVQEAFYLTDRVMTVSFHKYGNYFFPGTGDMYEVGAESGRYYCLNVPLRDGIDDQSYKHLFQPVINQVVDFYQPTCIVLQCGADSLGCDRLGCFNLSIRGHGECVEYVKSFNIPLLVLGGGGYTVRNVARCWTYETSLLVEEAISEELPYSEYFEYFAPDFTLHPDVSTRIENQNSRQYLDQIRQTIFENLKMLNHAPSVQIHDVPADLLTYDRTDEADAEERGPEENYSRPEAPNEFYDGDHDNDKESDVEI
T6 sequence (Q9Y618 395-489 partner limits assumed): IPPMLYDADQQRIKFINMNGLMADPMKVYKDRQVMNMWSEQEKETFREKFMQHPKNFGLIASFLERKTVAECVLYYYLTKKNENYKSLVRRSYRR

[8] = biological target: T7, HDAC9 (Homo sapiens, UniProt Q9UKV0); format: biochemical; settings: HDAC isoform 9; 2 μM FAM-labeled acetylated peptide substrate, 60 min, room temperature
T7 construct: purchased BPS Bioscience
T7 sequence (Q9UKV0 whole entry, canonical isoform): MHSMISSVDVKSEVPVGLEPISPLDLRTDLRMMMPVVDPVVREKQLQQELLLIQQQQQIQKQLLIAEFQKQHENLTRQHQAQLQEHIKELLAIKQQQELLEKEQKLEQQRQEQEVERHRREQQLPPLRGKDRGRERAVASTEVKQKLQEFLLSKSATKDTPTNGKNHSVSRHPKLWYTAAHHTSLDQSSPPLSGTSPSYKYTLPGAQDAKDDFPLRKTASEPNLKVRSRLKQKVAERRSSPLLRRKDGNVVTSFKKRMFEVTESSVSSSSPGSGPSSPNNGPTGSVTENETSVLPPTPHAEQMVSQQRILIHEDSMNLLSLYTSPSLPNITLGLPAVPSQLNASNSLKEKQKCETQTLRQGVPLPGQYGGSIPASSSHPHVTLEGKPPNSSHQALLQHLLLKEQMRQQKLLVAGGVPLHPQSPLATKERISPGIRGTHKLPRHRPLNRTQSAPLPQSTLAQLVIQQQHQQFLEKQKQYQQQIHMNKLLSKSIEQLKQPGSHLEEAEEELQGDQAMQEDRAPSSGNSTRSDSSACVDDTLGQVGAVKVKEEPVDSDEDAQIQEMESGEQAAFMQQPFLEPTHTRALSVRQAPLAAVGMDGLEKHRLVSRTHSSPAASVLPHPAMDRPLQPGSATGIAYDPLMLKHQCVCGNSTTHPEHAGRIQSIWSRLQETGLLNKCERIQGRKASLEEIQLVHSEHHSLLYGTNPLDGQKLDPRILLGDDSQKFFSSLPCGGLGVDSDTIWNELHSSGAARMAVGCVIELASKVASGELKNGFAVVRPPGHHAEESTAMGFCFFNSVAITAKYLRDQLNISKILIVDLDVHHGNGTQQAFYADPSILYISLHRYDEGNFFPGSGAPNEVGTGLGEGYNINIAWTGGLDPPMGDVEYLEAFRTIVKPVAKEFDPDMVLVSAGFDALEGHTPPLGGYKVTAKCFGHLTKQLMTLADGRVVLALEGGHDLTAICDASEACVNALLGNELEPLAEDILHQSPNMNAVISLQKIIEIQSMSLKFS

[9] = biological target: T8, HDAC7 (Homo sapiens, UniProt Q8WUI4); format: biochemical; settings: HDAC isoform 7; 2 μM FAM-labeled acetylated peptide substrate, 60 min, room temperature
T8 construct: purchased BPS Bioscience
T8 sequence (Q8WUI4 1-952): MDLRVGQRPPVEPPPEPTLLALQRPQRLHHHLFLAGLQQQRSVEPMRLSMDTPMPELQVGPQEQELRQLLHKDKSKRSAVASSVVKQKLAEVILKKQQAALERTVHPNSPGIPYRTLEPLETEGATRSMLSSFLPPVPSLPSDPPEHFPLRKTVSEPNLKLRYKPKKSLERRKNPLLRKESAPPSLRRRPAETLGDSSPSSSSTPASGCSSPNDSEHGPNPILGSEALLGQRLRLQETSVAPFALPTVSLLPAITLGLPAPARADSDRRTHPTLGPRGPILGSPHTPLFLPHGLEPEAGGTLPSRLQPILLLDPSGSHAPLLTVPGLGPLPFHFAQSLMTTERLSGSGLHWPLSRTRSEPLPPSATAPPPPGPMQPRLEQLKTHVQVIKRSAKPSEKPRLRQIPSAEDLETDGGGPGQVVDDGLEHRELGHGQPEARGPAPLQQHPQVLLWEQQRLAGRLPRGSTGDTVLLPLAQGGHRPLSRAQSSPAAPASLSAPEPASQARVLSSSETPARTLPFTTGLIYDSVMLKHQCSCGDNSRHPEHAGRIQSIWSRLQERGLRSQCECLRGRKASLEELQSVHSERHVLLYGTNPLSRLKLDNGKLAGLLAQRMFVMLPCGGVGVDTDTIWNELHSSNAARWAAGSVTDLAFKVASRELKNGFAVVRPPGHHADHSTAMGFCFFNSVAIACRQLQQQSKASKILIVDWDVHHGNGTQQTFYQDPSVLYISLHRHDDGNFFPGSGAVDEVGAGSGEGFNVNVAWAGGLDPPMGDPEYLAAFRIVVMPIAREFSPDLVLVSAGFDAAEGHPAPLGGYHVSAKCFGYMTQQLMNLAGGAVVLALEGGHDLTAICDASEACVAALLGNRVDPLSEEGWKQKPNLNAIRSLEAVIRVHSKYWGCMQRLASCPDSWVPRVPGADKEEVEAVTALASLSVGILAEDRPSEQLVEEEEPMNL

IC50 [1] [µM]	IC50 [2] [µM]	IC50 [3] [µM]	pIC50 [4]	IC50 [5] [µM]	IC50 [6] [µM]	IC50 [7] [µM]	IC50 [8] [µM]	IC50 [9] [µM]	SMILES
0.024	3.44	21.1	4.53	0.727	1.85	0.734	> 33	–	O=C(NO)C1=CCCC1 [Compound 21A, N-Hydroxycyclopent-1-Enecarboxamide]
> 33	> 33	> 33	< 4.48	> 33	9.14	> 33	> 33	> 33	O=C(NO)C1=C[C@@H](O)[C@@H](O)[C@H](O)C1 [Compound 22A, (3R,4S,5R)-N,3,4,5-Tetrahydroxycyclohex-1-Enecarboxamide]
0.049	0.584	23.6	4.80	0.275	1.13	0.713	11.2	17.9	CC1=C(C(=O)NO)Cc2ccccc21 [Compound 29A, N-Hydroxy-3-Methyl-1H-Indene-2-Carboxamide]
0.014	0.375	7.41	4.83	0.084	0.494	0.099	13	11.6	Cc1ccc(S(=O)(=O)N2CC=C(C(=O)NO)CC2)cc1 [Compound 31A, N-Hydroxy-1-Tosyl-1,2,3,6-Tetrahydropyridine-4-Carboxamide]
0.014	2.6	14	5.33	1.86	0.626	2.32	4.08	2.46	O=C(NO)C1=Cc2ccccc2CC1 [Compound 32A, N-Hydroxy-3,4-Dihydronaphthalene-2-Carboxamide]

Continued, compound first:

SMILES	IC50 [1] [µM]	IC50 [2] [µM]	IC50 [3] [µM]	pIC50 [4]	IC50 [5] [µM]	IC50 [6] [µM]	IC50 [7] [µM]	IC50 [8] [µM]	IC50 [9] [µM]
COc1ccc(CNC2C=C(C(=O)NO)CCC2)cc1 (stereo not shown) [Compound 7A, N-Hydroxy-3-((4-Methoxybenzyl)Amino)Cyclohex-1-Enecarboxamide]	2.68	> 33	> 33	< 4.48	> 33	2.16	> 33	> 33	> 33
O=C(NO)C1=CC(Sc2ccccc2)CCC1 (stereo not shown) [Compound 10A, N-Hydroxy-3-(Phenylthio)Cyclohex-1-Enecarboxamide]	0.106	1.7	10.9	5.10	2.1	0.055	3.22	16	6.91
COc1ccc(C(=O)N2CCC=C(C(=O)NO)C2)cc1 [Compound 12A]	6.2	> 33	> 33	< 4.48	> 33	23.2	> 33	> 33	> 33
O=C(NO)C1=CCCCC1 [Compound 19A, N-Hydroxycyclohex-1-Enecarboxamide]	0.011	1.4	15.2	4.99	0.423	0.523	0.493	11.7	2.32
O=C(NO)C1=CCOCC1 [Compound 20A, N-Hydroxy-3,6-Dihydro-2H-Pyran-4-Carboxamide]	0.016	1.9	–	< 4.48	1.08	1.38	1.4	> 33	26.8
CN1CCC=C(C(=O)NO)C1 [Compound 30A, N-Hydroxy-1-Methyl-1,2,5,6-Tetrahydropyridine-3-Carboxamide]	> 33	> 33	> 33	< 4.48	> 33	2.63	> 33	> 33	> 33
